Laboratory results taken from patent US9365576B2, “Pyrrolopyrrolidinone compounds” (Novartis AG, priority 2012, dated 2016).
pIC50: −log10 of the molar value.

The molecules below were run against human MDM2 protein (amino acids 2-188) (Homo sapiens (Human), UniProt Q00987) (assay: TR-FRET assay, p53-MDM2 Assay 2 (modified)). Settings: TR-FRET; 0.1 nM MDM2, 0.1 nM Europium labeled streptavidin, Tecan genios Pro reader; read-out: IC50 p53-MDM2 Assay 2.
Format: binding
In short: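 Biotinylated human MDM2 (aa 2–188, 1.25 nM) was preincubated 15 min at room temperature with 0.625 nM Eu-streptavidin, then 10 nM Cy5-p53 peptide (aa 18–26) added for 15 min. TR-FRET ratio 665/620 nm (excitation 340 nm) was read; IC50 came from curve fitting.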

Sequence of human MDM2 protein (amino acids 2-188) (Q00987 2-188): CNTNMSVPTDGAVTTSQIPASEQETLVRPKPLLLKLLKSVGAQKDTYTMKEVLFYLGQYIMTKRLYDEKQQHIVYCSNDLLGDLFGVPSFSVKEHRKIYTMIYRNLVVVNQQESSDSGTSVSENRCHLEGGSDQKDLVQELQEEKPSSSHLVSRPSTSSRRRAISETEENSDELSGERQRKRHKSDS

Going from `COc1nc(N)ncc1-c1cc2c(n1C(C)C)C(c1ccc(C#N)cc1)N(c1cc(Cl)c[nH]c1=O)C2=O` (stereo not drawn) [Example 125, 4-[2-(2-Amino-4-methoxy-pyrimidin-5-yl)-5-(5-chloro-2-oxo-1,2-dihydro-pyridin-3-yl)-1-isopropyl-4-oxo-1,4,5,6-tetrahydro-pyrrolo[3,4-b]pyrrol-6-yl]-benzonitrile] to `COc1ncc(-c2cc3c(n2C(C)C)C(c2ccc(C#N)cc2)N(c2cc(Cl)c[nH]c2=O)C3=O)c(OC)n1` (stereo not drawn) [Example 126, 4-[5-(5-Chloro-2-oxo-1,2-dihydro-pyridin-3-yl)-2-(2,4-dimethoxy-pyrimidin-5-yl)-1-isopropyl-4-oxo-1,4,5,6-tetrahydro-pyrrolo[3,4-b]pyrrol-6-yl]-benzonitrile], the pIC50 rises from 8.49 to 9.11 (0.62 log units).

First: COc1nc(N(C)C)ncc1-c1cc2c(n1C(C)C)C(c1ccc(C#N)cc1)N(c1cc(Cl)c[nH]c1=O)C2=O (stereo not drawn) [Example 127, 4-[5-(5-Chloro-2-oxo-1,2-dihydro-pyridin-3-yl)-2-(2-dimethylamino-4-methoxy-pyrimidin-5-yl)-1-isopropyl-4-oxo-1,4,5,6-tetrahydro-pyrrolo[3,4-b]pyrrol-6-yl]-benzonitrile]
Second: COc1nc(N(C)C)ncc1-c1cc2c(n1C(C)C)C(c1ccc(C#N)cc1)N(c1c[nH]c(=O)c(Cl)c1)C2=O (stereo not drawn) [Example 136, 4-[5-(5-Chloro-6-oxo-1,6-dihydro-pyridin-3-yl)-2-(2-dimethylamino-4-methoxy-pyrimidin-5-yl)-1-isopropyl-4-oxo-1,4,5,6-tetrahydro-pyrrolo[3,4-b]pyrrol-6-yl]-benzonitrile]
The pIC50 of the first is 0.44 log units lower: 9.44 for the first, 9.88 for the second.

Going from `CNc1ncc(-c2cc3c(n2C(C)C)C(c2ccc(C#N)cc2)N(c2cc(Cl)c[nH]c2=O)C3=O)c(OC)n1` (stereo not drawn) [Example 128, 4-[5-(5-Chloro-2-oxo-1,2-dihydro-pyridin-3-yl)-1-isopropyl-2-(4-methoxy-2-methylamino-pyrimidin-5-yl)-4-oxo-1,4,5,6-tetrahydro-pyrrolo[3,4-b]pyrrol-6-yl]-benzonitrile] to `CNc1ncc(-c2cc3c(n2C(C)C)C(c2ccc(C#N)cc2)N(c2c[nH]c(=O)c(Cl)c2)C3=O)c(OC)n1` (stereo not drawn) [Example 137, 4-[5-(5-Chloro-6-oxo-1,6-dihydro-pyridin-3-yl)-1-isopropyl-2-(4-methoxy-2-methylamino-pyrimidin-5-yl)-4-oxo-1,4,5,6-tetrahydro-pyrrolo[3,4-b]pyrrol-6-yl]-benzonitrile], the pIC50 rises from 9.28 to 9.49 (0.21 log units).

Compared with `COc1nc(N)ncc1-c1cc2c(n1C(C)C)C(c1ccc(C#N)cc1)N(c1cc(Cl)cn(C)c1=O)C2=O` (stereo not drawn) [Example 129, 4-[2-(2-Amino-4-methoxy-pyrimidin-5-yl)-5-(5-chloro-1-methyl-2-oxo-1,2-dihydro-pyridin-3-yl)-1-isopropyl-4-oxo-1,4,5,6-tetrahydro-pyrrolo[3,4-b]pyrrol-6-yl]-benzonitrile], `CNc1ncc(-c2cc3c(n2C(C)C)C(c2ccc(C#N)cc2)N(c2cc(Cl)cn(C)c2=O)C3=O)c(OC)n1` (stereo not drawn) [Example 130, 4-[5-(5-Chloro-1-methyl-2-oxo-1,2-dihydro-pyridin-3-yl)-1-isopropyl-2-(4-methoxy-2-methylamino-pyrimidin-5-yl)-4-oxo-1,4,5,6-tetrahydro-pyrrolo[3,4-b]pyrrol-6-yl]-benzonitrile] is 0.72 log units higher in pIC50: 8.25 for the first, 8.97 for the second. The second is the more potent here.

Going from `COc1nc(N(C)C)ncc1-c1cc2c(n1C(C)C)C(c1ccc(C#N)cc1)N(c1cc(Cl)cn(C)c1=O)C2=O` (stereo not drawn) [Example 131, 4-[5-(5-Chloro-1-methyl-2-oxo-1,2-dihydro-pyridin-3-yl)-2-(2-dimethylamino-4-methoxy-pyrimidin-5-yl)-1-isopropyl-4-oxo-1,4,5,6-tetrahydro-pyrrolo[3,4-b]pyrrol-6-yl]-benzonitrile] to `COc1ncc(-c2cc3c(n2C(C)C)C(c2ccc(C#N)cc2)N(c2cc(Cl)cn(C)c2=O)C3=O)c(OC)n1` (stereo not drawn) [Example 132, 4-[5-(5-Chloro-1-methyl-2-oxo-1,2-dihydro-pyridin-3-yl)-2-(2,4-dimethoxy-pyrimidin-5-yl)-1-isopropyl-4-oxo-1,4,5,6-tetrahydro-pyrrolo[3,4-b]pyrrol-6-yl]-benzonitrile], the pIC50 falls from 9.53 to 8.94 (0.59 log units).

Going from `CNc1ncc(-c2cc3c(n2C(C)C)C(c2ccc(C#N)cc2)N(c2cc(Cl)c(=O)n(C)c2)C3=O)c(OC)n1` (stereo not drawn) [Example 133, 4-[5-(5-Chloro-1-methyl-6-oxo-1,6-dihydro-pyridin-3-yl)-1-isopropyl-2-(4-methoxy-2-methylamino-pyrimidin-5-yl)-4-oxo-1,4,5,6-tetrahydro-pyrrolo[3,4-b]pyrrol-6-yl]-benzonitrile] to `COc1nc(N)ncc1-c1cc2c(n1C(C)C)C(c1ccc(C#N)cc1)N(c1c[nH]c(=O)c(Cl)c1)C2=O` (stereo not drawn) [Example 134, 4-[2-(2-Amino-4-methoxy-pyrimidin-5-yl)-5-(5-chloro-6-oxo-1,6-dihydro-pyridin-3-yl)-1-isopropyl-4-oxo-1,4,5,6-tetrahydro-pyrrolo[3,4-b]pyrrol-6-yl]-benzonitrile], the pIC50 falls from 9.49 to 8.90 (0.59 log units).

Compared with `COc1ncc(-c2cc3c(n2C(C)C)C(c2ccc(C#N)cc2)N(c2c[nH]c(=O)c(Cl)c2)C3=O)c(OC)n1` (stereo not drawn) [Example 135, 4-[5-(5-Chloro-6-oxo-1,6-dihydro-pyridin-3-yl)-2-(2,4-dimethoxy-pyrimidin-5-yl)-1-isopropyl-4-oxo-1,4,5,6-tetrahydro-pyrrolo[3,4-b]pyrrol-6-yl]-benzonitrile], `COc1ncc(-c2cc3c(n2C(C)C)C(c2ccc(Cl)cc2)N(c2c[nH]c(=O)c(Cl)c2)C3=O)c(OC)n1` (stereo not drawn) [Example 139, 5-(5-Chloro-6-oxo-1,6-dihydro-pyridin-3-yl)-6-(4-chloro-phenyl)-2-(2,4-dimethoxy-pyrimidin-5-yl)-1-isopropyl-5,6-dihydro-1H-pyrrolo[3,4-b]pyrrol-4-one] is 0.21 log units higher in pIC50: 9.37 for the first, 9.58 for the second. The second is the more potent here.

`COc1nc(N)ncc1-c1cc2c(n1C(C)C)C(c1ccc(Cl)cc1)N(c1c[nH]c(=O)c(Cl)c1)C2=O` (stereo not drawn) [Example 138, 2-(2-Amino-4-methoxy-pyrimidin-5-yl)-5-(5-chloro-6-oxo-1,6-dihydro-pyridin-3-yl)-6-(4-chloro-phenyl)-1-isopropyl-5,6-dihydro-1H-pyrrolo[3,4-b]pyrrol-4-one] and `COc1nc(N(C)C)ncc1-c1cc2c(n1C(C)C)C(c1ccc(Cl)cc1)N(c1c[nH]c(=O)c(Cl)c1)C2=O` (stereo not drawn) [Example 140, 5-(5-Chloro-6-oxo-1,6-dihydro-pyridin-3-yl)-6-(4-chloro-phenyl)-2-(2-dimethylamino-4-methoxy-pyrimidin-5-yl)-1-isopropyl-1-5,6-dihydro-1H-pyrrolo[3,4-b]pyrrol-4-one] are within 0.2 log units of each other in pIC50: 9.47 for the first, 9.64 for the second.

Compared with `COc1nc(N)ncc1-c1cc2c(n1C(C)C)C(c1ccc(Cl)cc1)N([C@H]1CC[C@H](OC)CC1)C2=O` (stereo partly drawn) [Example 141, 2-(2-Amino-4-methoxy-pyrimidin-5-yl)-6-(4-chloro-phenyl)-1-isopropyl-5-(trans-4-methoxy-cyclohexyl)-5,6-dihydro-1H-pyrrolo[3,4-b]pyrrol-4-one], `COc1nc(N(C)C)ncc1-c1cc2c(n1C(C)C)C(c1ccc(Cl)cc1)N([C@H]1CC[C@H](OC)CC1)C2=O` (stereo partly drawn) [Example 142, 6-(4-Chloro-phenyl)-2-(2-dimethylamino-4-methoxy-pyrimidin-5-yl)-1-isopropyl-5-(trans-4-methoxy-cyclohexyl)-5,6-dihydro-1H-pyrrolo[3,4-b]pyrrol-4-one] is 0.97 log units higher in pIC50: 8.16 for the first, 9.13 for the second.
